This is an account of results in PubChem BioAssay AID1259411 (Chemical Carcinogenesis Research Information System (CCRIS), 2018).

Activity calls are given as the source filed them. How the calls were made is not given here.

This data set concerns rodent carcinogenicity bioassays, tumor incidence. The data set is described as follows: CCRIS carcinogenicity studies. The method, boiled down:
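Archive of carcinogenicity, mutagenicity, tumor promotion and tumor inhibition results drawn from journals, NCI reports and other sources, expert-reviewed; covers 1985-2011 and is no longer updated.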

Take `ClC/C=C/CCl`: the carcinogen call was “active; positive” (Species: RAT, Strain/Sex: CD/MALE, Route: INHALATION, Dose: 0, 0.1, 0.3, 1.0 PPM 6 HR/D 5 D/WK FOR 86 WK (STUDY DURATION: 86 WK), Dose: 0, 0.1, 0.3, 1.0 PPM 6 HR/D 5 D/WK FOR 86 WK (STUDY DURATION: 86 WK), Tumor Site: Type of Lesion: NASAL CAVITY: ADENOMA, ADENOCARCINOMA, CARCINOSARCOMA, MIXED CARCINOMA); “active; positive” (Species: Rat, Strain/Sex: CD BR/Female (140/group), Route: Inhalation, Dose: 0, 0.5 6 hr/d for 2 yr, 5 ppm 6 hr/d lowered to 2.5 ppm after 7 mo and continued an additional 5 mo with a 1-yr maintena, Dose: 0, 0.5 6 hr/d for 2 yr, 5 ppm 6 hr/d lowered to 2.5 ppm after 7 mo and continued an additional 5 mo with a 1-yr maintena, Tumor Site: Type of Lesion: Nasal Passages: Benign (0 (0%), 23 (18%), 5 (3.9%)) and malignant tumors (0 (0%), 2 (1.6%), 113 (88.3%))); “active; positive” (Species: Rat, Strain/Sex: CD BR/Male (140/group), Route: Inhalation, Dose: 0, 0.5 6 hr/d for 2 yr, 5 ppm 6 hr/d lowered to 2.5 ppm after 7 mo and continued an additional 5 mo with a 1-yr maintena, Dose: 0, 0.5 6 hr/d for 2 yr, 5 ppm 6 hr/d lowered to 2.5 ppm after 7 mo and continued an additional 5 mo with a 1-yr maintena, Tumor Site: Type of Lesion: Nasal Passages: Benign (0 (0%), 33 (25.4%), 2 (1.6%)) and malignant tumors (0 (0%), 11 (8.5%), 114 (88.4%))).

In the case of `CCN(CC)CCCC(C)Nc1c2ccc(Cl)cc2nc2ccc(OC)cc12` (centres undefined), the carcinogen call is, setting by setting: (Species: Mouse, Strain/Sex: CD-1/Female (23/24)/(24/24)(23/24)(22/23), Route: Intraperitoneal, Dose: 0, 10, 50, 150 mg/kg on days 8 and 15 after birth (Study duration: 52 weeks) (Test material solvent: 1% w/v carboxymethy, Dose: 0, 10, 50, 150 mg/kg on days 8 and 15 after birth (Study duration: 52 weeks) (Test material solvent: 1% w/v carboxymethy) “inactive; negative”; (Species: Mouse, Strain/Sex: CD-1/Male (32/32)/(23/24)(23/24)(25/25), Route: Intraperitoneal, Dose: 0, 10, 50, 150 mg/kg on days 8 and 15 after birth (Study duration: 52 weeks) (Test material solvent: 1% w/v carboxymethy, Dose: 0, 10, 50, 150 mg/kg on days 8 and 15 after birth (Study duration: 52 weeks) (Test material solvent: 1% w/v carboxymethy) “inactive; negative”.

As for `O=[N+]([O-])c1ccc2c3c(cccc13)-c1ccccc1-2`, the carcinogen call is, setting by setting: (Species: MOUSE, Strain/Sex: B6C3F1/MALE, Route: INTRAPERITONEAL, Dose: 0, 400 NMOL IN 35 µL DMSO ON DAYS 1 (1/7 TOTAL DOSE), 8 (2/7 TOTAL DOSE), AND 15 (4/7 TOTAL DOSE) AFTER BIRTH (STUDY DUR) “inactive; negative”; (Species: MOUSE, Strain/Sex: ICR/FEMALE, Route: INTRAPERITONEAL, Dose: 0, 63 UG TOTAL DOSE (9 UG/5 µL, 18 UG/10 µL, 36 UG/20 µL DMSO ON DAYS 1, 8 AND 15), 315 UG TOTAL DOSE (45 UG/5 µL, 90 UG, Dose: 0, 63 UG TOTAL DOSE (9 UG/5 µL, 18 UG/10 µL, 36 UG/20 µL DMSO ON DAYS 1, 8 AND 15), 315 UG TOTAL DOSE (45 UG/5 µL, 90 UG, Tumor Site: Type of Lesion: LUNG: ADENOMA) “active; positive”; (Species: MOUSE, Strain/Sex: ICR/MALE, Route: INTRAPERITONEAL, Dose: 0, 63 UG TOTAL DOSE (9 UG/5 µL, 18 UG/10 µL, 36 UG/20 µL DMSO ON DAYS 1, 8 AND 15), 315 UG TOTAL DOSE (45 UG/5 µL, 90 UG, Dose: 0, 63 UG TOTAL DOSE (9 UG/5 µL, 18 UG/10 µL, 36 UG/20 µL DMSO ON DAYS 1, 8 AND 15), 315 UG TOTAL DOSE (45 UG/5 µL, 90 UG, Tumor Site: Type of Lesion: LUNG: ADENOMA) “active; positive”; (Species: RAT, Strain/Sex: F344/DUCRJ FISCHER/MALE, Route: SUBCUTANEOUS, Dose: 2 MG TWICE WEEKLY FOR A TOTAL OF 15 INJECTIONS (STUDY DURATION: 52 WK), Tumor Site: Type of Lesion: INTEGUMENTARY SYSTEM: FIBROUS HISTIOCYTOMAS) “active; positive”; (Species: RAT, Strain/Sex: F344/MALE, Route: LUNG IMPLANT, Dose: 0, 1000 UG SUSPENDED IN BEESWAX/TRICAPRYLIN INTO LOWER LEFT LUNG ONCE (STUDY DURATION: 100 WK)) “inactive; negative”; (Species: RAT, Strain/Sex: F344/MALE, Route: PULMONARY IMPLANT, Dose: 0, 1000 UG IN 50 µL BEESWAX/TRICAPRYLIN IMPLANTED FOR UP TO 100 WK (STUDY DURATION: 100 WK)) “inactive; negative”.

Take `Cc1ccc([N+]#N)cc1`: the carcinogen call was “active; positive” (Species: MOUSE, Strain/Sex: SWISS/FEMALE, Route: SUBCUTANEOUS, Dose: 0, 50 UG/G 1/WK FOR 16 OR 19 WK (STUDY DURATION: 140 WK), Tumor Site: Type of Lesion: SUBCUTANEOUS TISSUE: TUMOR, SKIN: TUMOR) and “active; positive” (Species: MOUSE, Strain/Sex: SWISS/MALE, Route: SUBCUTANEOUS, Dose: 0, 50 UG/G 1/WK FOR 16 OR 19 WK (STUDY DURATION: 140 WK), Tumor Site: Type of Lesion: SUBCUTANEOUS TISSUE: TUMOR).

In the case of `CCC(=O)Oc1ccc(/C(CC)=C(\CC)c2ccc(OC(=O)CC)cc2)cc1`, for the setting “Species: RAT, Route: SUBCUTANEOUS, Tumor Site: Type of Lesion: PITUITARY GLAND”, the carcinogen call is “active; positive”.
